Reference: patent publication US20090143279A1 (priority 2007, published 2009)
Where a name gives a salt, the structure may show the parent alone. Read-outs that look alike come from different tables or passages of the source. Where a SMILES comes first, the peptide text is derived from it. The star is where a group is joined. Tfa = O=C(C(F)(F)F)*

Columns and labels:
[1] = tested on: cellular dehydrogenase activity
mtOXPHOS transcripts = assay type: cell-based, mouse; conditions: for mito-OXPHOS Z: Table 7, C2C12 myotubes, 48 h, composite Z-score
[2] = tested on: mitochondrial membrane potential; assay type: cell-based, mouse
cytochrome c = assay type: cell-based, mouse
reactive oxygen species = assay type: cell-based, mouse
OXPHOS gene expression = assay type: cell-based, mouse
nuOXPHOS transcripts = assay type: cell-based, mouse; conditions: for nucOXPHOS Z: Table 7, C2C12 myotubes, 48 h, composite Z-score
[3] = composite Z-score vs mock-treated (DMSO) wells, concentration of each compound in μM
[4] = composite Z-score vs DMSO, Conc 15.08 μM
[5] = normalized composite Z-score vs mock-treated (DMSO) wells, Conc 20 μM
[6] = composite Z-score vs DMSO, Conc 20 μM
[7] = composite Z-score vs DMSO wells, Conc 20 μM
[8] = Conc 20 μM, normalized score vs mock-treated (DMSO) wells
[9] = composite Z-score vs mock-treated (DMSO) wells, Conc 20 μM

In the case of COc1ccc([C@H]2COc3c(ccc(O)c3OC)C2)c(OC)c1O [(−)-duartin], the MTT [1, 3] is reported as −0.571, the mitoOX (mtOXPHOS transcripts; [3]) is reported as 0.466 and the ΔΨm [2, 3] is reported as 0.392. It also gave a cyt c (cytochrome c; [3]) of −0.472, an ROS (reactive oxygen species; [3]) of 0.900 and a GE-HTS (OXPHOS gene expression; [3]) of −0.048. For the same compound, the nucOX (nuOXPHOS transcripts; [3]) was −0.331 and the Viability (C2C12 myotubes; [3]) was 1.175.
COc1ccc(C[C@H]2NC[C@H](O)[C@H]2OC(C)=O)cc1 [Anisomycin, reference compound] was tested, and the MTT [1, 4] was −4.623, the “mito-OXPHOS Z” value (mtOXPHOS transcripts) was −3.55 and the mitoOX (mtOXPHOS transcripts; [4]) was −3.545. It also gave a ΔΨm [2, 4] of −1.537, a cyt c (cytochrome c; [4]) of −2.841 and an ROS (reactive oxygen species; [4]) of −2.958. The GE-HTS (OXPHOS gene expression; [4]) was −0.353, the “nucOXPHOS Z” value (nuOXPHOS transcripts) was 1.26 and the nucOX (nuOXPHOS transcripts; [4]) was 1.256. The nuOXPHOS expression (nuOXPHOS transcripts; screen, relative to mtOXPHOS, in words) was “preferentially increase” and the Viability (C2C12 myotubes; [4]) was −2.835.
COc1cccc2c1C(=O)c1c(O)c3c(c(O)c1C2=O)C[C@@](O)(C(C)=O)C[C@@H]3O[C@H]1C[C@H](N)[C@H](O)[C@H](C)O1 [Daunorubicin, reference compound] was tested, and the MTT [1] was −5.009, the mitoOX (mtOXPHOS transcripts) was 1.373 and the “mito-OXPHOS Z” value (mtOXPHOS transcripts) was 1.37. It also gave a ΔΨm [2] of −2.337, a cyt c (cytochrome c) of −3.722 and an ROS (reactive oxygen species) of −2.398. The GE-HTS (OXPHOS gene expression) was −1.008, the nucOX (nuOXPHOS transcripts) was −2.094 and the “nucOXPHOS Z” value (nuOXPHOS transcripts) was −2.09. It also gave a Viability (C2C12 myotubes) of −3.547.
Cc1c(O)c(O)cc2c1CC=C1[C@@]2(C)CC[C@@]2(C)[C@@H]3C[C@](C)(C(=O)O)CC[C@]3(C)CC[C@]12C [Dihydrocelastrol, reference compound] was tested, and the MTT [1, 5] was −5.524, the “mito-OXPHOS Z” value (mtOXPHOS transcripts) was −5.22 and the mitoOX (mtOXPHOS transcripts; [5]) was −5.217. It also gave a ΔΨm [2, 5] of −3.514, a cyt c (cytochrome c; [5]) of −4.583 and an ROS (reactive oxygen species; [5]) of −3.065. For the same compound, the GE-HTS (OXPHOS gene expression; [5]) was −0.295, the “nucOXPHOS Z” value (nuOXPHOS transcripts) was 2.18 and the nucOX (nuOXPHOS transcripts; [5]) was 2.183. The Viability (C2C12 myotubes; [5]) was −4.120.
Work on C[C@H](N)CO [I-alaninol] yielded an MTT [1, 6] of −0.342, a mitoOX (mtOXPHOS transcripts; [6]) of −0.738 and a ΔΨm [2, 6] of −0.428. It also gave a cyt c (cytochrome c; [6]) of 0.301, an ROS (reactive oxygen species; [6]) of 0.242 and a GE-HTS (OXPHOS gene expression; [6]) of −0.652. The nucOX (nuOXPHOS transcripts; [6]) was −0.555 and the Viability (C2C12 myotubes; [6]) was −0.353.
CC(C)C[C@H](N)C(=O)N[C@@H](C)C(=O)O [L-leucyl-L-alanine] (H-Leu-Ala-OH) gave an MTT [1, 6] of −0.320, a mitoOX (mtOXPHOS transcripts; [6]) of 0.093 and a ΔΨm [2, 6] of −0.307. It also gave a cyt c (cytochrome c; [6]) of −0.861, an ROS (reactive oxygen species; [6]) of 0.301 and a GE-HTS (OXPHOS gene expression; [6]) of 0.365. For the same compound, the nucOX (nuOXPHOS transcripts; [6]) was 0.465 and the Viability (C2C12 myotubes; [6]) was −0.600.
With O[C@H]1[C@H]2c3cc4c(cc3CN3CCC(=C[C@@H]1O)[C@H]23)OCO4 [Lycorine, reference compound] the MTT [1, 6] was −4.612, the mitoOX (mtOXPHOS transcripts; [6]) was −5.387 and the ΔΨm [2, 6] was −2.570. For the same compound, the cyt c (cytochrome c; [6]) was −1.288, the ROS (reactive oxygen species; [6]) was −2.639 and the GE-HTS (OXPHOS gene expression; [6]) was −1.119. It also gave a nucOX (nuOXPHOS transcripts; [6]) of 1.103 and a Viability (C2C12 myotubes; [6]) of −2.922.
NCCNC(=O)c1ccc(Cl)cc1 [N-(2-aminoethyl)-4-chlorobenzamide] was tested, and the MTT [1, 7] was −0.669, the mitoOX (mtOXPHOS transcripts; [7]) was −0.205 and the ΔΨm [2, 7] was −1.051. The cyt c (cytochrome c; [7]) was −0.423, the ROS (reactive oxygen species; [7]) was 1.036 and the GE-HTS (OXPHOS gene expression; [7]) was 0.065. It also gave a nucOX (nuOXPHOS transcripts; [7]) of 0.175 and a Viability (C2C12 myotubes; [7]) of −1.090.
With CC(=O)N[C@@H](CC(=O)O)C(=O)O [N-acetylaspartic acid] the “MTT (composite Z-score)” value [1, 8] was −0.456, the “mitoOX (composite Z-score)” value (mtOXPHOS transcripts; [8]) was −1.046 and the “ΔΨm (composite Z-score)” value [2, 8] was −0.663. The “cyt c (composite Z-score)” value (cytochrome c; [8]) was 0.753, the “ROS (composite Z-score)” value (reactive oxygen species; [8]) was 0.309 and the “GE-HTS (composite Z-score)” value (OXPHOS gene expression; [8]) was −0.670. For the same compound, the “nucOX (composite Z-score)” value (nuOXPHOS transcripts; [8]) was −0.436 and the “Viability (composite Z-score)” value (C2C12 myotubes; [8]) was −0.266.
CC(=O)N[C@H]1[C@H]([C@@H](O)[C@@H](O)CO)O[C@@](O)(C(=O)O)C[C@@H]1O [N-acetylneuramic acid] gave an MTT [1, 7] of −0.118, a mitoOX (mtOXPHOS transcripts; [7]) of 0.813 and a ΔΨm [2, 7] of 0.053. It also gave a cyt c (cytochrome c; [7]) of −0.254, an ROS (reactive oxygen species; [7]) of 0.063 and a GE-HTS (OXPHOS gene expression; [7]) of 1.061. For the same compound, the nucOX (nuOXPHOS transcripts; [7]) was 1.111 and the Viability (C2C12 myotubes; [7]) was 1.009.
Compound CSCC[C@H](NC=O)C(=O)N[C@@H](CC(C)C)C(=O)N[C@@H](Cc1ccccc1)C(=O)O [N-formylmethionyl-leucylphenylalanine] has an MTT [1, 7] of −1.240, a mitoOX (mtOXPHOS transcripts; [7]) of −0.051 and a ΔΨm [2, 7] of 0.476. For the same compound, the cyt c (cytochrome c; [7]) was 0.374, the ROS (reactive oxygen species; [7]) was 1.017 and the GE-HTS (OXPHOS gene expression; [7]) was −0.370. The nucOX (nuOXPHOS transcripts; [7]) was −0.517 and the Viability (C2C12 myotubes; [7]) was 0.354.
In the case of CC[C@H](C)[C@H](NC)C(=O)O [N-methylisoleucine], the MTT [1] is reported as 0.372, the mitoOX (mtOXPHOS transcripts) is reported as 0.850 and the ΔΨm [2] is reported as −0.210. The cyt c (cytochrome c) was −0.451, the ROS (reactive oxygen species) was 0.300 and the GE-HTS (OXPHOS gene expression) was 0.772. It also gave a nucOX (nuOXPHOS transcripts) of 0.676 and a Viability (C2C12 myotubes) of 1.026.
For COc1cc2c(cc1OC)-c1cc3ccc(OC)c(OC)c3c[n+]1CC2 [Palmatine, reference compound], the MTT [1, 3] was −1.222, the “mito-OXPHOS Z” value (mtOXPHOS transcripts) was 1.83 and the mitoOX (mtOXPHOS transcripts; [3]) was 1.833. It also gave a ΔΨm [2, 3] of −0.823, a cyt c (cytochrome c; [3]) of −0.084 and an ROS (reactive oxygen species; [3]) of 0.511. The GE-HTS (OXPHOS gene expression; [3]) was 1.822, the “nucOXPHOS Z” value (nuOXPHOS transcripts) was 1.64 and the nucOX (nuOXPHOS transcripts; [3]) was 1.636. The Viability (C2C12 myotubes; [3]) was −1.028.
In the case of C=C1[C@@H]([C@@]2(C)[C@@H](OC(C)=O)CC(=O)O[C@](C)(COC(C)=O)[C@@H]2C(=O)OC)[C@@H](OC=O)[C@H](OC(=O)[C@H](O)[C@H](C)CC)[C@@]2(C)[C@H](c3ccoc3)CC(=O)[C@]12O [Prieurianin, reference compound], the MTT [1, 9] is reported as −1.263, the “mito-OXPHOS Z” value (mtOXPHOS transcripts) is reported as 1.93 and the mitoOX (mtOXPHOS transcripts; [9]) is reported as 1.931. It also gave a ΔΨm [2, 9] of 1.108, a cyt c (cytochrome c; [9]) of −1.620 and an ROS (reactive oxygen species; [9]) of −1.358. The GE-HTS (OXPHOS gene expression; [9]) was 2.020, the “nucOXPHOS Z” value (nuOXPHOS transcripts) was 1.90 and the nucOX (nuOXPHOS transcripts; [9]) was 1.896. The Viability (C2C12 myotubes; [9]) was −0.894.
For COc1ccc(C[C@H](N)C(=O)N[C@H]2[C@@H](O)[C@H](n3cnc4c(N(C)C)ncnc43)O[C@@H]2CO)cc1 [Puromycin, reference compound], the MTT [1, 6] was −5.624, the “mito-OXPHOS Z” value (mtOXPHOS transcripts) was 1.24 and the mitoOX (mtOXPHOS transcripts; [6]) was −1.331. It also gave a ΔΨm [2, 6] of −3.989, a cyt c (cytochrome c; [6]) of −5.573 and an ROS (reactive oxygen species; [6]) of −2.665. For the same compound, the GE-HTS (OXPHOS gene expression; [6]) was −3.348, the “nucOXPHOS Z” value (nuOXPHOS transcripts) was −2.80 and the nucOX (nuOXPHOS transcripts; [6]) was −4.017. It also gave a Viability (C2C12 myotubes; [6]) of −5.718.
N[C@@H](CCC(=O)N[C@@H](CSC(CC(=O)O)C(=O)O)C(=O)NCC(=O)O)C(=O)O (stereo partly drawn) [S-(1,2-dicarboxyethyl)glutathione] gave an MTT [1, 6] of −0.635, a mitoOX (mtOXPHOS transcripts; [6]) of −0.219 and a ΔΨm [2, 6] of 0.038. The cyt c (cytochrome c; [6]) was −0.411, the ROS (reactive oxygen species; [6]) was 0.258 and the GE-HTS (OXPHOS gene expression; [6]) was −0.364. For the same compound, the nucOX (nuOXPHOS transcripts; [6]) was −0.400 and the Viability (C2C12 myotubes; [6]) was −0.049.
With CC(=O)O.CSC(=N)NCCC[C@H](N)C(=O)O [S-methyl-L-thiocitrulline acetate] the MTT [1, 3] was −0.262, the mitoOX (mtOXPHOS transcripts; [3]) was 0.173 and the ΔΨm [2, 3] was −0.542. For the same compound, the cyt c (cytochrome c; [3]) was 0.533, the ROS (reactive oxygen species; [3]) was 0.052 and the GE-HTS (OXPHOS gene expression; [3]) was 0.291. It also gave a nucOX (nuOXPHOS transcripts; [3]) of 0.325 and a Viability (C2C12 myotubes; [3]) of 0.613.
Compound CC(C)[C@H](NC(=O)[C@H](Cc1ccc(O)cc1)NC(=O)[C@@H](NC(=O)C(F)(F)F)C(C)C)C(=O)O [TFA-Val-Tyr-Val-OH] (Tfa-Val-Tyr-Val-OH) has an MTT [1, 3] of −1.019, a mitoOX (mtOXPHOS transcripts; [3]) of −0.008 and a ΔΨm [2, 3] of −0.510. For the same compound, the cyt c (cytochrome c; [3]) was −0.785, the ROS (reactive oxygen species; [3]) was 0.471 and the GE-HTS (OXPHOS gene expression; [3]) was 0.294. It also gave a nucOX (nuOXPHOS transcripts; [3]) of 0.415 and a Viability (C2C12 myotubes; [3]) of −0.143.
